Entries after “also recorded” stand apart in the source; their conditions may differ.
How the values were obtained:
hTRPV6 = biological target: T1, hTRPV6 (Homo sapiens, UniProt Q9H1D0); experiment: Patch clamp selectivity, hTRPV6; format: cell-based; conditions: hTRPV6 vs TRPA1
T1 sequence (Q9H1D0 1-765): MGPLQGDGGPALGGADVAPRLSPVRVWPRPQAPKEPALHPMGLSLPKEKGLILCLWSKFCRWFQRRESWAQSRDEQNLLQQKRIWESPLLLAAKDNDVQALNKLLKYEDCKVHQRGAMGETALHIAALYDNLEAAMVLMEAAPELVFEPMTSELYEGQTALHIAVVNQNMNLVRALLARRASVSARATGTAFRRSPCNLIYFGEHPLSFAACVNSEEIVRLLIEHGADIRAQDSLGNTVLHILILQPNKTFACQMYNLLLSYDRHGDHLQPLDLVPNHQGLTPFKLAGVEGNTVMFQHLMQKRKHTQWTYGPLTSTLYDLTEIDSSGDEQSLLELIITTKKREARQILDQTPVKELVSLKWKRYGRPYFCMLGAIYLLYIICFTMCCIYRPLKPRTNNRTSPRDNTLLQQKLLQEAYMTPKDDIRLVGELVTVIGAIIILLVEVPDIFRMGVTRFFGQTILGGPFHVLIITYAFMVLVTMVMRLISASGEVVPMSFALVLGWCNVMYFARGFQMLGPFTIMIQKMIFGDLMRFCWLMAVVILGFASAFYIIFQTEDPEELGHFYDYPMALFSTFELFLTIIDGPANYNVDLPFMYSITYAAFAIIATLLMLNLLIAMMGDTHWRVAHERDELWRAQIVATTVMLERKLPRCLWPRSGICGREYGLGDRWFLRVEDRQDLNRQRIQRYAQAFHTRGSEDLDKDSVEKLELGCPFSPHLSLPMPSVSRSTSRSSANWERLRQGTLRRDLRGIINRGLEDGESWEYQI
Protocol: (§1) Data for TRPA1 inhibition and the selectivity of TRPA1 inhibition was obtained by this method for the compound of Formula (Ia) and included in Table 1 and Table 2. All currents were recorded in whole-cell configuration using EPC-9 and EPC-10 amplifiers and Patchmaster software (HEKA). […] The standard pipette solution consisted of 140 mM CsAsp, 10 mM EGTA, 10 mM HEPES, 2.27 mM MgCl2, 1.91 mM CaCl2, 4 mM MgATP, and 0.1-0.3 mM Na2GTP, with pH adjusted to 7.2 with CsOH. In addition, a solution containing 145 mM CsCl, 10 mM HEPES, 10 mM EGTA and 1 mM MgCl2 (pH 7.2 adjusted with CsOH) can be used. The standard bath solution contained 150 mM NaCl, 10 mM HEPES, 10 mM glucose, 4.5 mM KCl, 1 mM EGTA, 3 mM MgCl2, with pH adjusted to 7.4 with NaOH. In some instances, 2 mM CaCl2 was added in place of EGTA and the concentration of MgCl2 was reduced to 1 mM.
(§2) Data were collected either by continuous recordings at −60 mV or by applying voltage ramps from a holding potential of 0 mV every 4 s. […] Inward and outward currents were analyzed from the ramps at −80 and 80 mV, respectively. […]
(§3) Solutions were switched using a gravity-fed continuous focal perfusion system. […] Temperatures were confirmed using a thermistor (Warner Instruments, TA-29), with temperatures at the recorded cell estimated to be within +/−2° C. of those reported. […]

[1] = tested on: CFA-induced cold allodynia; experiment: Complete Freund's Adjuvant (CFA) cold allodynia rodent pain model; format: in vivo, rat; conditions: in words
Protocol: The compound of Formula (Ia) is also active in rodent models of pain in vivo induced by cold allodynia following chronic Complete Freund's Adjuvant-induced inflammation, as described in Example 6. […] The compound of Formula (Ia), the comparator compound of Formula (II) and ketoprofen were tested by the CFA-induced pain test method reported in del Camino et al., J. Neurosci., 30(45):15165-15174, incorporated herein by reference in its entirety. Briefly, the hind paw is sensitized to cold temperature (allodynic), by administering 0.1 mL of Complete Freund's Adjuvant (CFA) is administered to the left hind paw. 2-3 days later, the time taken for the animal to lift its CFA-injected paw is recorded compared to its un-injected normal right hind paw. […] To avoid tissue damage the maximum cut-off time is 5 minutes. Animals that are allodynic (average PWL to the first three pain behaviors<150 seconds for the CFA-injected hind paw: ˜≧50% difference between the normal and CFA-injected paw) are included in the study and subsequently randomized across treatment groups. The following day, the animals are dosed under blinded conditions. Following the 1-2 hour pre-treatment time, the post-dose PWL readings are again taken. The efficacy of the drug treatment is assessed by comparing the PWL in the drug treatment animals to those animals that receive the vehicle.

hNav1.2 = hNav1.2 (Homo sapiens, UniProt Q99250); experiment: Patch clamp selectivity, hNav1.2; format: cell-based; conditions: hNav1.2 vs TRPA1
hNav1.2, sequence (Q99250 whole entry): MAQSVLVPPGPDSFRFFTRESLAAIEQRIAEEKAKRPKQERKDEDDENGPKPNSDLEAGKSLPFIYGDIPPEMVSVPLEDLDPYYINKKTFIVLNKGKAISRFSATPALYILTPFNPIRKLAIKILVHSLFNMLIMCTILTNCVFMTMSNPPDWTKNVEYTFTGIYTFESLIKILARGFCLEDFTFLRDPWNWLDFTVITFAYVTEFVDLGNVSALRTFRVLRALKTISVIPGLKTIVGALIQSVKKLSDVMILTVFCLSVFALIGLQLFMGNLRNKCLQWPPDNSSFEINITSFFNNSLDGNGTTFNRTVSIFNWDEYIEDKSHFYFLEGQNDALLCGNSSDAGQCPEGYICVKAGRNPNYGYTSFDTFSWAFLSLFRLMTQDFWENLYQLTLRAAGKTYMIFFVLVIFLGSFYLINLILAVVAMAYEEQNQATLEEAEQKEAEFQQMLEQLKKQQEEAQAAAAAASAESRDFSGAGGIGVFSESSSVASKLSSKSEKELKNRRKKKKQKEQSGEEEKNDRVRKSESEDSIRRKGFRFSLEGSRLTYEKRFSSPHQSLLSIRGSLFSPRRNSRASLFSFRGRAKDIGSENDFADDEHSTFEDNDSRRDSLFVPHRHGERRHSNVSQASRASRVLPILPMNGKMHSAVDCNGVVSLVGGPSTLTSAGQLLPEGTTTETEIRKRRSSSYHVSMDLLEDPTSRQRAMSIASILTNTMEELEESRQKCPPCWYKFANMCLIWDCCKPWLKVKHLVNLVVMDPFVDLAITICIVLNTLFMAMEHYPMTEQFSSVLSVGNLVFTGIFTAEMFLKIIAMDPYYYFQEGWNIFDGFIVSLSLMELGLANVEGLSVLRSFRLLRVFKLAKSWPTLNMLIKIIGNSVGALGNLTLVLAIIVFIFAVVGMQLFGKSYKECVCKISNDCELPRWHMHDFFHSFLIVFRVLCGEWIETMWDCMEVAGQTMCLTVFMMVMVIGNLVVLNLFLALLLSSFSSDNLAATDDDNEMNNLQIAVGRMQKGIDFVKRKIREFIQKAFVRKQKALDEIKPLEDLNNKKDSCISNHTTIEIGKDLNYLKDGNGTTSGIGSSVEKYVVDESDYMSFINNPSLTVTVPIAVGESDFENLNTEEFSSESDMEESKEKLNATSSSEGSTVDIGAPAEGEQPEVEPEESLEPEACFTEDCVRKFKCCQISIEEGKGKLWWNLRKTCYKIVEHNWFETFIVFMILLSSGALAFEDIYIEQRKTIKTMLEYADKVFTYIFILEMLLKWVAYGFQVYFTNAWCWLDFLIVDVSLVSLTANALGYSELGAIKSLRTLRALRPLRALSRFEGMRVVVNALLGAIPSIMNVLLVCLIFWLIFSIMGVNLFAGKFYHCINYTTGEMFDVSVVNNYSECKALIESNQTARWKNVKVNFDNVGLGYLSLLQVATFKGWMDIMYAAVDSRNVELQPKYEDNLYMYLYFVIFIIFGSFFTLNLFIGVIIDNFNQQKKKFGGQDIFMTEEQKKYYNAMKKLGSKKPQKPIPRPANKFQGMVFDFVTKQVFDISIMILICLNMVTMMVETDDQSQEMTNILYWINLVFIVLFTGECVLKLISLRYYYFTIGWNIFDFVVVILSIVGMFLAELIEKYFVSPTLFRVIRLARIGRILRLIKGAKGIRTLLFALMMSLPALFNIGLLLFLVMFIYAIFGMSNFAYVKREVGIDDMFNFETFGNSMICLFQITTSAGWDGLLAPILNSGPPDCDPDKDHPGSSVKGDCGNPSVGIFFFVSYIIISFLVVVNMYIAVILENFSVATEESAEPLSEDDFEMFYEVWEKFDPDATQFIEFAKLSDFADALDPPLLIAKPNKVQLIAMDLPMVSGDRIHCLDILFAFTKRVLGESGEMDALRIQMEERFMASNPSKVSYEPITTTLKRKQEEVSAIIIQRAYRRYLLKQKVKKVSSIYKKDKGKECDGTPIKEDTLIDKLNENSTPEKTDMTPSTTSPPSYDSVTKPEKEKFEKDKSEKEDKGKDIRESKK
Protocol: as §1, §2, §3

[2] = tested on: incisional spontaneous pain; experiment: Surgical incision pain model (Brennan Surgical Model); format: in vivo, rat; conditions: 60 mg/kg i.p. vs ketoprofen (2 doses of 2 mg/kg intraperitoneally)
Protocol: The compound of Formula (Ia), the comparator compound of Formula (III) and ketoprofen were tested by the incisional pain test method reported in Brennan et al., Pain, 1996 March; 64(3):493-501 incorporated herein by reference in its entirety. Briefly, in rats under anesthesia, a 1 cm incision through skin and underlying muscle is made in the bottom of one hind paw. The incision is sutured closed and the animals allowed to regain consciousness in their home cage before being placed on a special mesh rack. The blinded observer subjectively assesses and records each animal's pain score every 5 minutes for 1 hour. Pain scores are assigned as follows: Score of 0=Injured paw is held flat on the rack and is bearing weight (=uninjured paw); 1=Injured paw is slightly lifted from the rack but is bearing some weight; 2=Injured paw is flat but is bearing no weight, or heel is lifted high off the rack with only toes touching. At the end of each hour, pain scores are added up and the final score recorded ([…]). In a typical study the efficacy of the drug treatment is determined by comparing the cumulative guarding scores at 1-2 and 3-4 hours following surgical injury to the cumulative guarding scores of animals that received the vehicle.

Fold Selectivity Compared to TRPA1 (hTRPV6): ~370 Fold | Fold Selectivity Compared to TRPA1 (hNav1.2): >100 Fold
SMILES: C[C@H]1CCCN1c1ncc(-c2cccc(NC(=O)Cn3cnc4c3c(=O)n(C)c(=O)n4C)n2)cn1 [Formula (Ia)]
effect on cold allodynia [1]: has an analgesic effect on cold allodynia | reduction of spontaneous pain compared with ketoprofen [2]: equivalent to ketoprofen; also recorded: better than ketoprofen

— patent US9193729B2, “Inhibiting transient receptor potential ion channel TRPA1” (Cubist Pharmaceuticals, Inc., priority 2011, dated 2015)
